From ChEMBL document CHEMBL5335824, “Research progress of LSD1-based dual-target agents for cancer therapy” (Bioorg Med Chem, 2024)

Experiments:
DU-145 = assay: Antiproliferative activity against human DU-145 cells assessed as cell growth inhibition; format: functional, cell-based
PC-3 = assay: Growth inhibition of human PC-3 cells assessed as reduction in cell viability by SRB assay; format: functional; details: time 48 hrs
SGC-7901 = assay: cells; details: Homo sapiens, SGC-7901, 72 h
BGC-823 = assay: cells; details: Homo sapiens, BGC-823, 72 h
[1] = Inhibition of DCN1 (unknown origin) by TR-FRET analysis; parameters: species or system Homo sapiens
MGC-803 = assay: cells; details: Homo sapiens, MGC-803, 72 h
Spermine oxidase = Spermine oxidase (Homo sapiens, UniProt Q9NWM0); assay: Inhibition of SMOX (unknown origin) using spermine as substrate preincubated for 1 hr followed by substrate addition and measured after 20 mins by luminometer analysis
[2] = target: Lysine-specific histone demethylase 1A (Homo sapiens) (UniProt O60341); assay: Inhibition of LSD1 (unknown origin) at 10 uM relative to control
MIA PaCa-2 = assay: Antiproliferative activity against human MIA PaCa-2 cells assessed as reduction in cell viability incubated for 24 hrs by CCK-8 assay; format: functional, cell-based; details: MIA PaCa-2, 24 h
BXPC-3 = assay: Antiproliferative activity against human BXPC-3 cells assessed as reduction in cell viability measured for 72 hrs by CCK-8 assay; format: functional, cell-based; details: BXPC-3, 72 h
[3] = target: T1, Histone-lysine N-methyltransferase EHMT2 (Homo sapiens, UniProt Q96KQ7); assay: Inhibition of human G9a expressed in HEK293 cells; format: cell-based
T1 sequence (Q96KQ7 whole entry): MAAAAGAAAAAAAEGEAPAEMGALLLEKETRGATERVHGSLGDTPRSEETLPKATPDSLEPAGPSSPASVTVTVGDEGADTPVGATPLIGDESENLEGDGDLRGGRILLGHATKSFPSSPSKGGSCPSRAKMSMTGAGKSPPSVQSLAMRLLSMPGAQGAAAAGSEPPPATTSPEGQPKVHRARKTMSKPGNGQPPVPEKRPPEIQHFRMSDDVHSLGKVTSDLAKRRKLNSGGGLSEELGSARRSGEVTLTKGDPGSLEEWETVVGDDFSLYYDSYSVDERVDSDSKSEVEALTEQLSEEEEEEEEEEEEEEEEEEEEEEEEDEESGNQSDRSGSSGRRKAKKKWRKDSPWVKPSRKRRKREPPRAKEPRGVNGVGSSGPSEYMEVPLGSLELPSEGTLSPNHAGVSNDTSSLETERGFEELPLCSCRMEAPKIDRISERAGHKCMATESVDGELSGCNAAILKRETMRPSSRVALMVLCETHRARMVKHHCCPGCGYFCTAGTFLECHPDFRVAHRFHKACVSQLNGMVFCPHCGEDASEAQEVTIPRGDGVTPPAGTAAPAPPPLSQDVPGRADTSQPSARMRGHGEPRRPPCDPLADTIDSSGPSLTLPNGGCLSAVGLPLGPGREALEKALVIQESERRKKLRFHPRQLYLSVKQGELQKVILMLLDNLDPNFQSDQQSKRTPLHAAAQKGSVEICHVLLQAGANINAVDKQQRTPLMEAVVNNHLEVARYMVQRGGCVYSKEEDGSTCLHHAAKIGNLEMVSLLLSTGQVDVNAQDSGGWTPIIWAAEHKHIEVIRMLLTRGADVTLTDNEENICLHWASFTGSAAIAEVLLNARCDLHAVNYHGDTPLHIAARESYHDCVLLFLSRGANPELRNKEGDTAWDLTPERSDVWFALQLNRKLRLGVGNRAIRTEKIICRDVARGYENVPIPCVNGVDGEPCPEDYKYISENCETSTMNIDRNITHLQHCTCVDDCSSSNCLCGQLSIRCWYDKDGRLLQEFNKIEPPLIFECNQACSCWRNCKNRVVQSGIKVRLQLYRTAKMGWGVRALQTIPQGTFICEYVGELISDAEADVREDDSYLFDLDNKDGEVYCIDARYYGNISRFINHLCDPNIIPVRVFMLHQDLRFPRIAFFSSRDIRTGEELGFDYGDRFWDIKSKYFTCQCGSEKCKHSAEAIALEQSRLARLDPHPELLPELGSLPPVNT

Jurkat = assay: Antiproliferative activity against human Jurkat cells assessed as reduction in cell viability incubated for 48 hrs by cell titer-glo assay; format: functional, cell-based
MOLM-13 = assay: Antiproliferative activity against human MOLM-13 assessed as reduction in cell growth incubated for 48 hrs by MTT assay; format: functional, cell-based; details: MOLM-13, 48 h
K562 = assay: Antiproliferative activity against human K562 assessed as reduction in cell growth incubated for 48 hrs by MTT assay; format: functional, cell-based; details: K562, 48 h
THP-1 = assay: Antiproliferative activity against human THP-1 cells incubated for 24 hrs by trypan blue reagent based analysis; format: functional, cell-based; details: THP-1, 24 h
NCI-H1975 = assay: Antiproliferative activity against human NCI-H1975 cells assessed as reduction in cell viability incubated for 48 hrs by MTT assay; details: NCI-H1975, 48 h
MCF7 = assay: Antiproliferative activity against human MCF7 cells assessed as reduction in cell viability by MTT assay; format: functional, cell-based

Chain of Spermine oxidase (Q9NWM0 whole entry): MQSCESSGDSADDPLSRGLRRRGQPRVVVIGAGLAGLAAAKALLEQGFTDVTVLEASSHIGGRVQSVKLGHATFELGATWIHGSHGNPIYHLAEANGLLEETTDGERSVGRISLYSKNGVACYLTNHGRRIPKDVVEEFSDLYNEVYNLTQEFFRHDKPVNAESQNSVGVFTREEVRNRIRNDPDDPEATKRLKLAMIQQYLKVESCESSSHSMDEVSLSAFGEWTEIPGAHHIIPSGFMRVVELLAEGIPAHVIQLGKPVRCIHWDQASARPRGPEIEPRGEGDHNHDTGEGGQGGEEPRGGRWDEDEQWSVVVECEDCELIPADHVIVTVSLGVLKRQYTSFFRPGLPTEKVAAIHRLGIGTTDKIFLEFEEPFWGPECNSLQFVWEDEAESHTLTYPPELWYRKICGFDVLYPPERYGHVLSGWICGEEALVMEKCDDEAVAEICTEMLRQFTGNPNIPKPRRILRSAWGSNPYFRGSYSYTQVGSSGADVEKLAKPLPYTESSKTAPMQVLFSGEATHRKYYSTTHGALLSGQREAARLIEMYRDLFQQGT

C#CCN(C)Cc1cccc(NC(=O)CCCCCCC(=O)NO)c1 showed an IC50 (DU-145) of 0.42 µM and a GI50 (PC-3) of 0.33 µM.

Cc1cc(Sc2nnnn2CCN(C)C)n2nc(SCc3ccc(Cl)cc3)nc2n1 showed an IC50 (SGC-7901) of 0.85 µM, an IC50 (BGC-823) of 1 µM and an IC50 [1] of 0.011 µM. For the same compound, the IC50 (MGC-803) was 0.53 µM.

Nc1n[nH]c(NCc2c(Cl)cccc2Oc2ccc(-c3ccccc3)cc2)n1 showed an IC50 (Spermine oxidase) of 25.7 µM, an inhibition [2] of 52.1% and an IC50 (MIA PaCa-2) of 61.5 µM. The IC50 (BXPC-3) was > 100 µM.

CN(C)CCCNc1nc(NC2CCN(Cc3ccccc3)CC2)c2ccccc2n1 gave an IC50 [3] of 41.3 µM.

O=C(NO)c1ccc(CN2CCC(CN[C@@H]3C[C@H]3c3ccccc3)CC2)cc1 gave an IC50 (Jurkat) of 15.5 µM, an IC50 (MOLM-13) of 1.3 µM and an IC50 (K562) of 16.6 µM. For the same compound, the IC50 (THP-1) was 16.3 µM.

COc1cc2nc(NCCCN(C)C)nc(NC3CCN(Cc4ccccc4)CC3)c2cc1OC gave an IC50 [3] of 0.778 µM.

In the case of CC/C(=C(/c1ccc(OCCN(C)C)cc1)c1ccc(OC(=O)N(C)CCN(C)C2CC2c2ccccc2)cc1)c1ccccc1 (stereo not drawn), the IC50 (MCF7) is reported as 28.7 µM.
